Source: ChEMBL document CHEMBL6096628, “Discovery of a Highly Potent and Selective BRD9 PROTAC Degrader Based on E3 Binder Investigation for the Treatment of Hematological Tumors” (J Med Chem, 2024)
Active and inactive are the calls of the source. The rule behind the calls is not given here.

Columns and labels:
[1] = test system: MV4-11; test: Cell cycle arrest in human MV4-11 cells assessed as accumulation of cells at G1 phase at 0.01 to 10 nM incubated for 24 hrs by PI staining based flow cytometric analysis; assay type: functional; details: dose 0.01-10 nM
[2] = test system: OCI-Ly10; test: Antitumor activity against human OCI-Ly10 cells xenografted in Balb/c nude mouse assessed as tumor volume at 30 mg/kg, po administered once daily for 18 days (reference value: 561 +/- 370 mm^3); assay type: functional; details: time 18 day
[3] = test system: MV4-11; test: Downregulation of BRD9 protein expression in human MV4-11 cells by proteomic analysis; assay type: functional, cell-based
[4] = test system: U-937; test: Antiproliferative activity against human U-937 cells assessed as inhibition of cell growth incubated for 7 days by MTS reagent based assay; assay type: functional; details: U-937, 168 h
[5] = molecular target: T1, Protein cereblon/Bromodomain-containing protein 9 (Homo sapiens, UniProt Q9H8M2+Q96SW2); test: PROTAC activity at CRBN/BRD9 in human MV4-11 cells assessed as induction of BRD9 degradation at 1 nM by Western blot analysis relative to control; assay type: cell-based
T1 sequence (Q96SW2 whole entry, looked up): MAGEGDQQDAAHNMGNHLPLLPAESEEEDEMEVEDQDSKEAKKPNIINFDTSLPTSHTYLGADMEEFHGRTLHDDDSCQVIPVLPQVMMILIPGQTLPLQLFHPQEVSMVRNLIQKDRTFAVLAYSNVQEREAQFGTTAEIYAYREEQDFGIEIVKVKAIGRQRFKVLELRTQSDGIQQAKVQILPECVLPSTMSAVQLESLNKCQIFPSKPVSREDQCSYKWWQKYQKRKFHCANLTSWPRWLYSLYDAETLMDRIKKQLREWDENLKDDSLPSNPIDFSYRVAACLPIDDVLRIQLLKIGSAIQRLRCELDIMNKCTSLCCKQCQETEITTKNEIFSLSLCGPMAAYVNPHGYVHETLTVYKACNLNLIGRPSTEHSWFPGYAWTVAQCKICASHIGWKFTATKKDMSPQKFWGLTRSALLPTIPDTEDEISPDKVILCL
T1 sequence (Q9H8M2 whole entry, looked up): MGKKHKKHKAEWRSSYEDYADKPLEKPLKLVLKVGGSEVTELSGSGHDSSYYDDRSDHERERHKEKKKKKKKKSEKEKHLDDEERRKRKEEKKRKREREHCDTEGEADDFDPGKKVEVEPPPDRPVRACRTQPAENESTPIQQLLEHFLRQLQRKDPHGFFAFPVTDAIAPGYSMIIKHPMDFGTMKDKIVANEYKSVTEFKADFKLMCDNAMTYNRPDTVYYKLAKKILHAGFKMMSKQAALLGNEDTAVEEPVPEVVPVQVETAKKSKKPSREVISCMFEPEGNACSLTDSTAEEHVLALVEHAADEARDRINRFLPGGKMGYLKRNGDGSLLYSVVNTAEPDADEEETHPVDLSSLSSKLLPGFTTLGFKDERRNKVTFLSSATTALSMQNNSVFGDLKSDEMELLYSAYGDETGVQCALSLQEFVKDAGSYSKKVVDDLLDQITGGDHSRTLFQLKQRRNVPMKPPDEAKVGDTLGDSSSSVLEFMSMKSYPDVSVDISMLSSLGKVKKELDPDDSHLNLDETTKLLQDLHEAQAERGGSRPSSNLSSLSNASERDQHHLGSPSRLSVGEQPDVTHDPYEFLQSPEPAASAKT

[6] = test system: MV4-11; test: Induction of apoptosis in human MV4-11 cells assessed as late apoptotic cells at 0.1 nM incubated for 48 hrs by Annexin V-FITC/PI staining based flow cytometric analysis (reference value: 0.91 %); assay type: functional
[7] = test system: SU-DHL-2; test: Antiproliferative activity against human SU-DHL-2 cells assessed as inhibition of cell growth incubated for 7 days by MTS reagent based assay; assay type: functional; details: SU-DHL-2, 168 h
[8] = test system: MV4-11; test: Induction of apoptosis in human MV4-11 cells assessed as viable cells at 10 nM incubated for 48 hrs by Annexin V-FITC/PI staining based flow cytometric analysis (reference value: 94.80 %); assay type: functional; details: read-out: Activity
[9] = Cytotoxicity against PBMC cells (unknown origin) assessed as inhibition of cell growth at 5000 nM incubated for 7 days by MTS reagent based assay; assay type: toxicity; details: 168 h, 5 µM, time 7 day
[10] = test system: OCI-Ly10; test: Antitumor activity against human OCI-Ly10 cells xenografted in Balb/c nude mouse assessed as test to control ratio at 30 mg/kg, po administered once daily for 18 days relative to control; assay type: functional; details: time 18 day
[11] = Toxicity in Balb/c nude mouse xenografted with human MV4-11 cells assessed as weight loss at 20 mg/kg, ip administered once a day for 20 days; assay type: organism-based; details: in vivo, 480 h, time 20 day
[12] = test system: MV4-11; test: Induction of apoptosis in human MV4-11 cells assessed as necrotic cells at 0.01 nM incubated for 48 hrs by Annexin V-FITC/PI staining based flow cytometric analysis (reference value: 0.07 %); assay type: functional
[13] = molecular target: T1, Protein cereblon/Bromodomain-containing protein 9; test: PROTAC activity at CRBN/BRD9 in human MV4-11 cells assessed as induction of BRD9 degradation by measuring maximal efficacy by Western blot analysis relative to control; assay type: cell-based
[14] = test system: MV4-11; test: Induction of apoptosis in human MV4-11 cells assessed as late apoptotic cells at 0.01 nM incubated for 48 hrs by Annexin V-FITC/PI staining based flow cytometric analysis (reference value: 0.91 %); assay type: functional
[15] = test system: Mus musculus; test: Upregulation of BRD7 expression in Balb/c nude mouse tumor xenografted with human MV4-11 cells at 20 mg/kg, ip administered once daily for 20 days by Western blot analysis; assay type: functional, organism-based; details: time 20.0 day
[16] = test system: MV4-11; test: Downregulation of beta-catenin mRNA expression level in human MV4-11 cells at 0.1 to 10 nM measured after 24 to 48 hrs by Western blot analysis; assay type: functional, cell-based; details: dose 0.1-10 nM, time 24-48 hrs
[17] = test system: MV4-11; test: Upregulation of C-myc expression level in human MV4-11 cells at 0.1 to 10 nM measured after 24 to 48 hrs by Western blot analysis; assay type: functional, cell-based; details: dose 0.1-10 nM, time 24-48 hrs
[18] = molecular target: T1, Protein cereblon/Bromodomain-containing protein 9; test: PROTAC activity at CRBN/BRD9 in human MV4-11 cells assessed as induction of BRD9 degradation at 0.33 nM by Western blot analysis relative to control; assay type: cell-based; details: time 0.5-24 hrs
[19] = test system: MV4-11; test: Antiproliferative activity against human MV4-11 cells assessed as inhibition of cell growth incubated for 7 days by MTS reagent based assay; assay type: functional; details: MV4-11, 168 h
[20] = test system: MV4-11; test: Antitumor activity against human MV4-11 cells xenografted in Balb/c nude mouse assessed as relative tumor volume at 20 mg/kg, ip administered once daily for 20 days (reference value: 7.85 +/- 3.69); assay type: functional; details: time 20 day
[21] = test system: MV4-11; test: Induction of BRD7 degradation in human MV4-11 cells at 100 nM by Western blot analysis; assay type: cell-based
[22] = test system: MV4-11; test: Induction of apoptosis in human MV4-11 cells assessed as late apoptotic cells at 1 nM incubated for 48 hrs by Annexin V-FITC/PI staining based flow cytometric analysis (reference value: 0.91 %); assay type: functional
[23] = AUC (0 to t) in ICR mouse at 20 mg/kg, IG administered via gavage and measured after 24 hrs by LC-MS analysis; assay type: ADME, organism-based; details: in vivo, po
[24] = test system: MV4-11; test: Induction of apoptosis in human MV4-11 cells assessed as early apoptotic cells at 0.1 nM incubated for 48 hrs by Annexin V-FITC/PI staining based flow cytometric analysis (reference value: 4.22 %); assay type: functional
[25] = test system: OCI-Ly10; test: Antiproliferative activity against human OCI-Ly10 cells assessed as inhibition of cell growth incubated for 7 days by MTS reagent based assay; assay type: functional; details: OCI-Ly10, 168 h
[26] = test system: OCI-Ly10; test: Antitumor activity against human OCI-Ly10 cells xenografted in Balb/c nude mouse assessed as tumor mass at 30 mg/kg, po administered once daily for 18 days (reference value: 1.12 +/- 0.44 g); assay type: functional; details: time 18 day
[27] = Toxicity in Balb/c nude mouse xenografted with human MV4-11 cells assessed as behavioral abnormalities at 20 mg/kg, ip administered once a day for 20 days; assay type: organism-based; details: in vivo, 480 h, time 20 day
[28] = test system: MV4-11; test: Downregulation of KHDC4 protein expression in human MV4-11 cells by proteomic analysis; assay type: functional, cell-based
[29] = test system: MV4-11; test: Downregulation of CELF1 protein expression in human MV4-11 cells by proteomic analysis; assay type: functional, cell-based
[30] = test system: MV4-11; test: Induction of IKZF1 degradation in human MV4-11 cells at 1 to 100 nM by Western blot analysis; assay type: cell-based; details: dose 1-100 nM
[31] = test system: OCI-Ly10; test: Antitumor activity against human OCI-Ly10 cells xenografted in Balb/c nude mouse assessed as relative tumor volume at 30 mg/kg, po administered once daily for 18 days (reference value: 9.07 +/- 4.66); assay type: functional; details: time 18 day
[32] = test system: Mus musculus; test: Upregulation of C-myc expression in Balb/c nude mouse tumor xenografted with human MV4-11 cells at 20 mg/kg, ip administered once daily for 20 days by Western blot analysis; assay type: functional, organism-based; details: time 20.0 day
[33] = test system: MV4-11; test: Antitumor activity against human MV4-11 cells xenografted in Balb/c nude mouse assessed as tumor volume at 20 mg/kg, ip administered once daily for 20 days (reference value: 1187 +/- 449 mm^3); assay type: functional; details: time 20 day
[34] = test system: MV4-11; test: Downregulation of AXIN2 mRNA expression level in human MV4-11 cells at 0.1 to 10 nM measured after 24 to 48 hrs by qPCR analysis; assay type: functional, cell-based; details: dose 0.1-10 nM, time 24-48 hrs
[35] = test system: Mus musculus; test: Upregulation of BRD4 expression in Balb/c nude mouse tumor xenografted with human MV4-11 cells at 20 mg/kg, ip administered once daily for 20 days by Western blot analysis; assay type: functional, organism-based; details: time 20.0 day

## COc1cc(-c2cn(C)c(=O)c3ccccc23)cc(OC)c1CN1CCC(CN2CCC(c3ccc4c5c(cccc35)C(=O)N4C3CCC(=O)NC3=O)CC2)CC1 (stereo not given)
[1]
  Activity: Active
[2]
  Activity: 309 mm3
[3]
  Activity: Active
[4]
  IC50: 1060 nM
[5]
  Activity: 92.5%
[6]
  Activity: 3.37%
[7]
  IC50: 38.6 nM
[8]
  viability at 0.01 µM: 74.8%
[9]
  Activity: Toxic
[10]
  T/C: ~40%
[11]
  Activity: Non-toxic
[12]
  Activity: 0.03%
[13]
  Emax: 97%
[14]
  Activity: 1.63%
[15]
  Activity: Active
[16]
  Activity: Active
[17]
  Activity: Active
[18]
  Activity: Time-dependent-effect
[19]
  IC50: 0.27 nM
[20]
  Activity: 4.99
[21]
  Activity: inactive
[22]
  Activity: 5.74%
[23]
  AUC(0-t) at 24 h: 1300 ng·h/mL
[24]
  Activity: 9.2%
[25]
  IC50: 1.04 nM
[26]
  Activity: 0.56 g
[27]
  Activity: Non-toxic
[28]
  Activity: Active
[29]
  Activity: Active
[30]
  Activity: Active; Moderate Degradation Observed
[31]
  Activity: 4
[32]
  Activity: Active
[33]
  Activity: 766 mm3
[34]
  Activity: Active
[35]
  Activity: Active
